For one experiment, the target named is T1, PDGFRalpha(V561D) (Homo sapiens, UniProt P16234, V561D).
T1 construct: recombinant human PDGFRalpha, amino acids 550end containing the V561 D mutation; 6His (N)
Kind of experiment: PDGFRalpha(V561D) assay. It is filed as biochemical. Conditions: recombinant human PDGFRalpha aa 550-end, 200 μM ATP, 1.4E-06 means 1.4×10^−6, read-out: Inhibition (IC50) of PDGFRα (V561D). The protocol:
(§1) PDGFRalpha(V561D) (N-terminal 6His-tagged, recombinant human PDGFRalpha, amino acids 550end containing the V561 D mutation) is incubated with 8 mM MOPS pH 7.0, 0.2 mM EDTA, 250 μM GGMEDIYEFMGGKKK, 10 mM MgAcetate and [gamma-33P-ATP] (specific activity approx. 500 cpm/pmol, concentration 200 μM). The reaction is initiated by the addition of the MgATP mix. After incubation for 40 minutes at room temperature, the reaction is stopped by the addition of 3% phosphoric acid solution. 10 μL of the reaction is then spotted onto a P30 filtermat and washed three times for 5 minutes in 75 mM phosphoric acid and once in methanol prior to drying and scintillation counting.

The target of another experiment is T2, c-Kit(V654A) (Homo sapiens, UniProt P10721, V654A).
T2 construct: amino acids 544-end containing the V654A mutation; GST (N)
Description: c-Kit(V654A) assay. To be noted: recombinant human c-Kit aa 544-end, 200 μM ATP, 1.4E-06 means 1.4×10^−6, read-out: Inhibition (IC50) of c-KIT (V654A). It is filed as biochemical. Here is the method:
as §1, with “c-Kit(V654A)” for “PDGFRalpha(V561D)”, “GST-tagged,” for “6His-tagged,”, “c-Kit,” for “PDGFRalpha,”, “544-end” for “550end”, “V654A” for “V561 D”

Molecules are shown by their SMILES. Structures can show the parent of a compound that is named as a salt.

T2 sequence (P10721 544-976 V654A): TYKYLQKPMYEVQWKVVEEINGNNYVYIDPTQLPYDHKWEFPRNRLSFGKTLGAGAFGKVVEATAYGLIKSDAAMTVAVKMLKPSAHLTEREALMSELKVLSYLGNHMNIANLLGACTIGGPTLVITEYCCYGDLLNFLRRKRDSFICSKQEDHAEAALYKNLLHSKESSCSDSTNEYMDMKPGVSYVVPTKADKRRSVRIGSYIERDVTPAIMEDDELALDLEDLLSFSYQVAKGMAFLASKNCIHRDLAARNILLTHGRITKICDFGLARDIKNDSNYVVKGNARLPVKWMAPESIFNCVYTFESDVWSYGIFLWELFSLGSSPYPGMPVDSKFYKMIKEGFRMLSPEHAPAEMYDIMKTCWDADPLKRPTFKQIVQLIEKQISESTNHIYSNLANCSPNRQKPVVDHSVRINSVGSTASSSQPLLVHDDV
T1 sequence (P16234 550-1089 V561D): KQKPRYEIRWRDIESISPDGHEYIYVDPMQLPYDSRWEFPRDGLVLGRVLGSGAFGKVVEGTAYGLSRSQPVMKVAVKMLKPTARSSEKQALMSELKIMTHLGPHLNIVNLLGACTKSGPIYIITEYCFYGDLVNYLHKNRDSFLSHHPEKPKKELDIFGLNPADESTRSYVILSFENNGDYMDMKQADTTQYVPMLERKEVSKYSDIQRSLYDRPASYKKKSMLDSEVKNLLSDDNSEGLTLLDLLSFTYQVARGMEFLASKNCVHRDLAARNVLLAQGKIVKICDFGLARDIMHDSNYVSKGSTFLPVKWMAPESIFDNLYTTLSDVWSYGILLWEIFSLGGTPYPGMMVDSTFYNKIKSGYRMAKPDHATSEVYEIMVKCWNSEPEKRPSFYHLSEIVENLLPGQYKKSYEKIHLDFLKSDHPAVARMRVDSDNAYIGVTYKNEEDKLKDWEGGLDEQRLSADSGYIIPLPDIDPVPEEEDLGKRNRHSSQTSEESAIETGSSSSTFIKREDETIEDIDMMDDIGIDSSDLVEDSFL

The IC50 is the concentration at which inhibition is half-maximal. Regarding `CN(C(=O)[C@H]1CCCO1)c1ccc(-n2cc(-c3cc4cc(F)ccc4[nH]c3=O)nn2)cc1` [A343, (R)-tetrahydro-furan-2-carboxylic acid {4-[4-(6-fluoro-2-oxo-1,2-dihydro-quinolin-3-yl)-[1,2,3]triazol-1-yl]-phenyl}-methyl-amide], the results for the IC50 on PDGFRalpha(V561D) and on c-Kit(V654A) were 85 nM and 9 nM, respectively.
The matching figures for `Cc1ccc2cc(-c3cn(-c4ccc(C(=O)N5CCN(C)CC5)cc4)nn3)c(=O)[nH]c2n1` [A65, 7-methyl-3-{1-[4-(4-methyl-piperazine-1-carbonyl)-phenyl]-1H-[1,2,3]triazol-4-yl}-1H-[1,8]naphthyridin-2-one]: 150 nM and 1200 nM.
The matching figures for `CN[C@H]1CCN(C(=O)c2ccc(-n3cc(-c4cc5cc(F)ccc5[nH]c4=O)nn3)cc2)C1` [A312, 6-fluoro-3-{1-[4-((S)-3-methylamino-pyrrolidine-1-carbonyl)-phenyl]-1H-[1,2,3]triazol-4-yl}-1H-quinolin-2-one hydrochloride]: 290 nM and 61 nM.
The matching figures for `O=C(NCCO)c1ccc(-n2cc(-c3cc4ccccc4[nH]c3=O)nn2)cc1` [A19, N-(2-hydroxy-ethyl)-4-[4-(2-oxo-1,2-dihydro-quinolin-3-yl)-[1,2,3]triazol-1-yl]-benzamide]: 14 nM and 38 nM.
Consider `NC1CCN(C(=O)c2ccc(-n3cc(-c4cc5cc(F)ccc5[nH]c4=O)nn3)cc2)CC1` [A144, 3-{1-[4-(4-amino-piperidine-1-carbonyl)-phenyl]-1H-[1,2,3]triazol-4-yl}-6-fluoro-1H-quinolin-2-one], for which the half-inhibitory concentration (IC50) on PDGFRalpha(V561D) came out at 170 nM; on c-Kit(V654A), 12 nM.
Turning to `CN(C(=O)C1CCOCC1)c1ccc(-n2cc(-c3cc4cc(F)ccc4[nH]c3=O)nn2)cc1` [A345, tetrahydro-pyran-4-carboxylic acid {4-[4-(6-fluoro-2-oxo-1,2-dihydro-quinolin-3-yl)-[1,2,3]triazol-111]-phenyl}-methyl-amide], the IC50 at PDGFRalpha(V561D) amounted to 1500 nM; on c-Kit(V654A) it was 12 nM.
For `CN1CCN(C(=O)C2CCCN2C(=O)c2ccc(-n3cc(-c4cc5cc(F)ccc5[nH]c4=O)nn3)cc2)CC1` (centres unmarked) [A281, 6-fluoro-3-(1-{4-[2-(4-methyl-piperazine-1-carbonyl)-pyrrolidine-1-carbonyl]-phenyl}-1H-[1,2,3]triazol-4-yl)-1H-quinolin-2-one], the IC50 came to 10 nM on PDGFRalpha(V561D) and 57 nM on c-Kit(V654A).
The matching figures for `COCCO[C@H]1CCN(C(=O)c2ccc(-n3cc(-c4cc5cc(F)ccc5[nH]c4=O)cn3)cc2)C1` [A299, 6-fluoro-3-(1-{4-[(S)-3-(2-methoxy-ethoxy)-pyrrolidine-1-carbonyl]-phenyl}-1H-pyrazol-4-yl)-1H-quinolin-2-one]: 23 nM and 58 nM.
`COCCOC[C@@H]1CCN(C(=O)c2ccc(-n3cc(-c4cc5cc(F)ccc5[nH]c4=O)nn3)cc2)C1` [A210, 6-fluoro-3-(1-{4-[(R)-3-(2-methoxy-ethoxymethyl)-pyrrolidine-1-carbonyl]-phenyl}-1H-[1,2,3]triazol-4-yl)-1H-quinolin-2-one]: the IC50 turned out to be 300 nM at PDGFRalpha(V561D) and 46 nM at c-Kit(V654A).
The matching figures for `CN1CCC(C(=O)c2ccc(-n3cc(-c4cc5cc(F)c(F)cc5[nH]c4=O)nn3)cc2)CC1` [A164, 6,7-difluoro-3-{1-[4-(1-methyl-piperidine-4-carbonyl)-phenyl]-1H-[1,2,3]triazol-4-yl}-1H-quinolin-2-one]: 11 nM and 8.4 nM.
The matching figures for `O=C(c1ccc(-n2cc(-c3cc4cc(F)ccc4[nH]c3=O)nn2)cc1)N1CCC(OCCN2CCCC2)C1` (centres unmarked) [A224, 6-fluoro-3-(1-{4-[3-(2-pyrrolidin-1-yl-ethoxy)-pyrrolidine-1-carbonyl]-phenyl}-1H-[1,2,3]triazol-4-yl)-1H-quinolin-2-one]: 280 nM and 70 nM.
`O=C(c1ccc(-n2cc(-c3cc4cc(F)c(F)cc4[nH]c3=O)nn2)cc1)N1CCC(OCCN2CCCC2)C1` (centres unmarked) [A225, 6,7-difluoro-3-(1-{4-[3-(2-pyrrolidin-1-yl-ethoxy)-pyrrolidine-1-carbonyl]-phenyl}-1H-[1,2,3]triazol-4-yl)-1H-quinolin-2-one]: the IC50 stood at 580 nM at PDGFRalpha(V561D) and 190 nM at c-Kit(V654A).
The matching figures for `CN1CCN(CCOc2ccc(-n3cc(-c4cc5cc(F)ccc5[nH]c4=O)nn3)cc2)CC1` [A176, 6-fluoro-3-(1-{4-[2-(4-methyl-piperazin-1-yl)-ethoxy]-phenyl}-1H-[1,2,3]triazol-4-yl)-1H-quinolin-2-one]: 1.6 nM and 6.7 nM.
The matching figures for `O=C(c1ccc(-n2cc(-c3cc4cc(F)ccc4[nH]c3=O)nn2)cc1)N1C[C@@H](O)CO1` [A274, 6-fluoro-3-{1-[4-((R)-4-hydroxy-isoxazolidine-2-carbonyl)-phenyl]-1H-[1,2,3]triazol-4-yl}-1H-quinolin-2-one]: 3.3 nM and 61 nM.
On to `CN(C)C1CN(C(=O)c2ccc(-n3cc(-c4cc5cc(F)ccc5[nH]c4=O)nn3)cc2)CC1(F)F` (centres unmarked) [A339, 3-{1-[4-(4-dimethylamino-3,3-difluoro-pyrrolidine-1-carbonyl)-phenyl]-1H-[1,2,3]triazol-4-yl}-6-fluoro-1H-quinolin-2-one], for which the IC50 at c-Kit(V654A) is 9.2 nM.
As to `O=C(c1ccc(-n2cc(-c3cc4ccccc4[nH]c3=O)cn2)cc1)N1CCNCC1` [A73, 3-{1-[4-(piperazine-1-carbonyl)-phenyl]-1H-pyrazol-4-yl}-1H-quinolin-2-one], the IC50 on PDGFRalpha(V561D) came out at 440 nM.
For the compound `CO[C@H]1CCN(C(=O)c2cc(-n3cc(-c4cc5cc(F)ccc5[nH]c4=O)nn3)cs2)C1` [A350, 6-fluoro-3-{1-[5-((S)-3-methoxy-pyrrolidine-1-carbonyl)-thiophen-3-yl]-1H-[1,2,3]triazol-4-yl}-1H-quinolin-2-one], at c-Kit(V654A), the IC50 was 16 nM.
For the compound `O=c1[nH]c2ccccc2cc1-c1cn(-c2ccccc2F)nn1` [A13, 3-[1-(2-fluoro-phenyl)-1H-[1,2,3]triazol-4-yl]-1H-quinolin-2-one], the IC50 on PDGFRalpha(V561D) is 500 nM.
Consider `CN1CCC(Cc2ccc(-n3cc(-c4cc5cc(Cl)ccc5[nH]c4=O)nn3)cc2)CC1` [A374, 6-chloro-3-{1-[4-(1-methyl-piperidin-4-ylmethyl)-phenyl]-1H-[1,2,3]triazol-4-yl}-1H-quinolin-2-one], for which the IC50 on c-Kit(V654A) was determined as 17 nM.
On the same count and under the same terms, as for `CN1CC2(CCN(C(=O)c3ccc(-n4cc(-c5cc6cc(F)ccc6[nH]c5=O)nn4)cc3)C2)C1` [A289, 6-fluoro-3-{1-[4-(2-methyl-2,6-diaza-spiro[3.4]octane-6-carbonyl)-phenyl]-1H-[1,2,3]triazol-4-yl}-1H-quinolin-2-one], the figure is 25 nM; as for `CN1CCC(Oc2ccc(-n3cc(-c4cc5cc(Cl)ccc5[nH]c4=O)nn3)cc2)CC1` [A376, 6-chloro-3-{1-[4-(1-methyl-piperidin-4-yloxy)-phenyl]-1H-[1,2,3]triazol-4-yl}-1H-quinolin-2-one], 4.9 nM.
On the same count and under the same terms, the result for `Cc1c(-c2cn(-c3ccc(C(=O)N4CCOCC4)cc3)nn2)c(=O)[nH]c2ccccc12` [A185, 4-methyl-3-{1-[4-(morpholine-4-carbonyl)-phenyl]-1H-[1,2,3]triazol-4-yl}-1H-quinolin-2-one] reads 510 nM; that for `O=c1[nH]c2ncccc2cc1-c1cn(-c2ccc(CO)cc2)nn1` [A7, 3-[1-(4-hydroxymethyl-phenyl)-1H-[1,2,3]triazol-4-yl]-1H-[1,8]naphthyridin-2-one], 490 nM.
On to `COc1cnc2[nH]c(=O)c(-c3cn(-c4ccc(C(=O)N(C)C)cc4)nn3)cc2c1` [A16, 4-[4-(6-methoxy-2-oxo-1,2-dihydro-[1,8]naphthyridin-3-yl)-[1,2,3]triazol-1-yl]-N,N-dimethyl-benzamide], for which, at PDGFRalpha(V561D), the IC50 came to 33 nM.
Still for that read-out and setting: as for `COC(=O)c1cccc(-n2cc(-c3cc4ccccc4[nH]c3=O)nn2)c1` [A23, 3-[4-(2-oxo-1,2-dihydro-quinolin-3-yl)-[1,2,3]triazol-1-yl]-benzoic acid methyl ester], the figure is 250 nM.
Consider `CO[C@H]1CCN(S(=O)(=O)c2ccc(-n3cc(-c4cc5cc(Cl)ccc5[nH]c4=O)nn3)cc2)C1` [A361, 6-chloro-3-{1-[4-((S)-3-methoxy-pyrrolidine-1-sulfonyl)-phenyl]-1H-[1,2,3]triazol-4-yl}-1H-quinolin-2-one], for which the IC50 on c-Kit(V654A) was determined as 11 nM.
Same read-out and setting: the result for `CN1CCC(C(=O)N(C)c2ccc(-n3cc(-c4cc5cc(F)ccc5[nH]c4=O)nn3)cc2)CC1` [A349, 1-methyl-piperidine-4-carboxylic acid {4-[4-(6-fluoro-2-oxo-1,2-dihydro-quinolin-3-yl)-[1,2,3]triazol-1-yl]-phenyl}-methyl-amide] reads 51 nM.
